From the NIST ThermoML archive (doi:10.1021/je700224j)

Conditions: Liquid

CCCC[n+]1ccn(C)c1.O=S(=O)([N-]S(=O)(=O)C(F)(F)F)C(F)(F)F
Conditions	mass density [kg/m3]
293.49 K, 101.33 kPa	1442.2
293.49 K, 1000 kPa	1442.8
293.49 K, 10000 kPa	1449
293.49 K, 30000 kPa	1462.1
293.49 K, 40000 kPa	1468.4
293.5 K, 5000 kPa	1445.6
293.5 K, 20000 kPa	1455.7
303.15 K, 101.33 kPa	1433
312.84 K, 101.33 kPa	1423.9
322.3 K, 10000 kPa	1422.5
322.3 K, 40000 kPa	1443.6
322.31 K, 101.33 kPa	1414.9
322.31 K, 1000 kPa	1415.6
322.31 K, 20000 kPa	1429.8
322.31 K, 30000 kPa	1436.8
322.32 K, 5000 kPa	1418.7
332.78 K, 101.33 kPa	1405.1
342.98 K, 101.33 kPa	1395.5
352.31 K, 5000 kPa	1390.9
352.31 K, 10000 kPa	1395.1
352.32 K, 20000 kPa	1403
352.32 K, 30000 kPa	1410.7
352.32 K, 40000 kPa	1418
352.33 K, 101.33 kPa	1386.6
352.33 K, 1000 kPa	1387.5
373.3 K, 30000 kPa	1392.7
373.31 K, 5000 kPa	1371.6
373.31 K, 20000 kPa	1384.5
373.32 K, 101.33 kPa	1367.1
373.32 K, 1000 kPa	1368
373.32 K, 10000 kPa	1376
373.33 K, 40000 kPa	1400.4
391.27 K, 1000 kPa	1351.3
391.28 K, 101.33 kPa	1350.4
391.28 K, 10000 kPa	1359.8
391.28 K, 20000 kPa	1368.8
391.28 K, 30000 kPa	1377.3
391.28 K, 40000 kPa	1385.4
391.3 K, 5000 kPa	1355.1
414.91 K, 20000 kPa	1348.1
414.91 K, 40000 kPa	1365.8
414.92 K, 101.33 kPa	1328.5
414.92 K, 1000 kPa	1329.5
414.92 K, 5000 kPa	1333.6
414.92 K, 10000 kPa	1338.6
414.92 K, 30000 kPa	1357.2

CCn1cc[n+](C)c1.O=S(=O)([N-]S(=O)(=O)C(F)(F)F)C(F)(F)F
Conditions	mass density [kg/m3]
293.49 K, 101.33 kPa	1522.3
293.49 K, 10000 kPa	1527.8
293.49 K, 20000 kPa	1533.3
293.49 K, 30000 kPa	1538.6
293.49 K, 40000 kPa	1543.6
293.5 K, 1000 kPa	1522.9
293.5 K, 5000 kPa	1525
302.68 K, 101.33 kPa	1513.2
312.64 K, 101.33 kPa	1503.2
322.3 K, 101.33 kPa	1493.2
322.3 K, 10000 kPa	1499.5
322.3 K, 20000 kPa	1505.3
322.3 K, 40000 kPa	1516.3
322.31 K, 5000 kPa	1496.5
322.31 K, 30000 kPa	1510.9
322.32 K, 1000 kPa	1494
332.58 K, 101.33 kPa	1483.2
342.49 K, 101.33 kPa	1473.6
352.3 K, 20000 kPa	1476.5
352.3 K, 40000 kPa	1488.2
352.31 K, 10000 kPa	1470.2
352.32 K, 101.33 kPa	1463.6
352.32 K, 5000 kPa	1467
352.32 K, 30000 kPa	1482.5
352.34 K, 1000 kPa	1464.4
373.3 K, 5000 kPa	1446.5
373.3 K, 30000 kPa	1462.8
373.31 K, 1000 kPa	1443.9
373.32 K, 101.33 kPa	1443.2
373.32 K, 10000 kPa	1449.9
373.33 K, 20000 kPa	1456.5
373.33 K, 40000 kPa	1468.7
391.25 K, 1000 kPa	1426.3
391.28 K, 10000 kPa	1432.6
391.28 K, 30000 kPa	1446
391.29 K, 101.33 kPa	1425.6
391.29 K, 5000 kPa	1429
391.31 K, 20000 kPa	1439.4
391.31 K, 40000 kPa	1452.3
414.92 K, 101.33 kPa	1402.4
414.92 K, 5000 kPa	1406
414.92 K, 10000 kPa	1409.8
414.92 K, 20000 kPa	1417.2
414.92 K, 30000 kPa	1424.2
414.92 K, 40000 kPa	1430.9
414.93 K, 1000 kPa	1403.1

CCCCn1cc[n+](C)c1.F[P-](F)(F)(F)(F)F [1-butyl-3-methylimidazolium hexafluorophosphate]
Conditions	mass density [kg/m3]
293.48 K, 1000 kPa	1369.9
293.49 K, 101.33 kPa	1369.8
293.49 K, 20000 kPa	1378.3
293.5 K, 10000 kPa	1374
293.5 K, 40000 kPa	1385.9
293.51 K, 5000 kPa	1371.7
293.51 K, 30000 kPa	1382.2
302.73 K, 101.33 kPa	1362
312.86 K, 101.33 kPa	1353.5
322.28 K, 101.33 kPa	1345.5
322.3 K, 10000 kPa	1350.6
322.3 K, 20000 kPa	1355.2
322.31 K, 1000 kPa	1346.2
322.31 K, 40000 kPa	1363.3
322.33 K, 5000 kPa	1348.2
322.33 K, 30000 kPa	1359.3
332.73 K, 101.33 kPa	1337
342.5 K, 101.33 kPa	1328.7
352.29 K, 101.33 kPa	1320.9
352.3 K, 40000 kPa	1339.8
352.31 K, 1000 kPa	1321.6
352.31 K, 10000 kPa	1326.3
352.31 K, 20000 kPa	1331.2
352.32 K, 5000 kPa	1323.7
352.34 K, 30000 kPa	1335.6
373.3 K, 5000 kPa	1306.6
373.31 K, 10000 kPa	1309.4
373.32 K, 30000 kPa	1319
373.33 K, 101.33 kPa	1303.9
373.33 K, 1000 kPa	1304.4
373.33 K, 40000 kPa	1323.3
373.34 K, 20000 kPa	1314.3
391.27 K, 10000 kPa	1294.7
391.28 K, 30000 kPa	1304.7
391.3 K, 101.33 kPa	1289.1
391.3 K, 5000 kPa	1292
391.31 K, 20000 kPa	1300
391.31 K, 40000 kPa	1309.1
391.32 K, 1000 kPa	1289.5
414.91 K, 10000 kPa	1275.6
414.92 K, 20000 kPa	1281
414.92 K, 40000 kPa	1290.5
414.93 K, 101.33 kPa	1269.7
414.93 K, 5000 kPa	1272.6
414.93 K, 30000 kPa	1285.9
414.94 K, 1000 kPa	1270.2

CCCCn1cc[n+](C)c1.F[B-](F)(F)F [1-butyl-3-methylimidazolium tetrafluoroborate]
Conditions	mass density [kg/m3]
292.94 K, 101.33 kPa	1204.8
293.49 K, 10000 kPa	1208.5
293.49 K, 30000 kPa	1216.5
293.49 K, 40000 kPa	1220.4
293.5 K, 1000 kPa	1204.7
293.5 K, 20000 kPa	1212.6
293.51 K, 5000 kPa	1206.5
302.8 K, 101.33 kPa	1197.5
312.79 K, 101.33 kPa	1190.2
322.3 K, 10000 kPa	1187.7
322.3 K, 40000 kPa	1200.4
322.31 K, 1000 kPa	1183.6
322.31 K, 20000 kPa	1192
322.31 K, 30000 kPa	1196.2
322.33 K, 5000 kPa	1185.4
322.83 K, 101.33 kPa	1182.9
332.53 K, 101.33 kPa	1175.8
342.72 K, 101.33 kPa	1168.6
352.31 K, 10000 kPa	1166.5
352.32 K, 101.33 kPa	1161.7
352.32 K, 5000 kPa	1164.1
352.32 K, 20000 kPa	1171.1
352.32 K, 30000 kPa	1175.7
352.33 K, 1000 kPa	1162.1
352.33 K, 40000 kPa	1180.01
373.31 K, 5000 kPa	1149.4
373.31 K, 20000 kPa	1156.8
373.32 K, 101.33 kPa	1146.9
373.32 K, 10000 kPa	1152
373.33 K, 30000 kPa	1161.6
373.33 K, 40000 kPa	1166.1
373.34 K, 1000 kPa	1147.3
391.27 K, 1000 kPa	1135
391.29 K, 101.33 kPa	1134.5
391.29 K, 10000 kPa	1139.7
391.29 K, 20000 kPa	1144.8
391.29 K, 30000 kPa	1149.7
391.29 K, 40000 kPa	1154.4
391.31 K, 5000 kPa	1137.1
414.92 K, 101.33 kPa	1116.5
414.92 K, 5000 kPa	1119.4
414.92 K, 20000 kPa	1127.4
414.92 K, 40000 kPa	1137.4
414.93 K, 1000 kPa	1117.1
414.93 K, 10000 kPa	1122.1
414.93 K, 30000 kPa	1132.5

CCOS(=O)(=O)[O-].CCn1cc[n+](C)c1 [1-ethyl-3-methylimidazolium ethyl sulfate]
Conditions	mass density [kg/m3]
292.49 K, 101.33 kPa	1242.1
293.46 K, 10000 kPa	1250.9
293.46 K, 20000 kPa	1259.3
293.47 K, 1000 kPa	1242.9
293.47 K, 5000 kPa	1246.5
293.47 K, 30000 kPa	1267.5
293.48 K, 40000 kPa	1275.4
302.61 K, 101.33 kPa	1236.7
312.47 K, 101.33 kPa	1230.7
322.3 K, 101.33 kPa	1224.4
322.31 K, 1000 kPa	1225.6
322.31 K, 5000 kPa	1229.5
322.31 K, 20000 kPa	1243.3
322.31 K, 40000 kPa	1260.6
322.32 K, 10000 kPa	1234.2
322.33 K, 30000 kPa	1252.1
332.74 K, 101.33 kPa	1218.4
342.42 K, 101.33 kPa	1212.6
352.32 K, 101.33 kPa	1206.3
352.33 K, 1000 kPa	1207.6
352.33 K, 5000 kPa	1211.8
352.33 K, 10000 kPa	1216.9
352.34 K, 20000 kPa	1226.7
352.34 K, 30000 kPa	1236
352.34 K, 40000 kPa	1245.2
373.36 K, 101.33 kPa	1194.1
373.36 K, 1000 kPa	1195
373.36 K, 5000 kPa	1199.4
373.36 K, 10000 kPa	1204.8
373.36 K, 30000 kPa	1225
373.36 K, 40000 kPa	1234.4
373.37 K, 20000 kPa	1215
391.39 K, 101.33 kPa	1183.2
391.39 K, 1000 kPa	1184.2
391.39 K, 5000 kPa	1188.8
391.39 K, 10000 kPa	1194.6
391.39 K, 30000 kPa	1215.4
391.39 K, 40000 kPa	1225.2
391.41 K, 20000 kPa	1205.1
414.94 K, 10000 kPa	1180.8
414.94 K, 20000 kPa	1192.1
414.94 K, 30000 kPa	1202.9
414.95 K, 101.33 kPa	1169.1
414.95 K, 1000 kPa	1170.2
414.95 K, 5000 kPa	1174.9
414.95 K, 40000 kPa	1213.2
